One experiment concerns LigM. Also noted: method as in ref 35 (a number printed in a supplementary file, which may have a reference list of its own: not looked up in the article's list). The note with it: 0.076 μM LigM, 5 mM H4-folate, pH 8.0, 30 °C, cited from earlier work.
The next experiment addresses T1, GcoAB (Amycolatopsis sp., UniProt P0DPQ7).
T1 sequence (P0DPQ7 1-407): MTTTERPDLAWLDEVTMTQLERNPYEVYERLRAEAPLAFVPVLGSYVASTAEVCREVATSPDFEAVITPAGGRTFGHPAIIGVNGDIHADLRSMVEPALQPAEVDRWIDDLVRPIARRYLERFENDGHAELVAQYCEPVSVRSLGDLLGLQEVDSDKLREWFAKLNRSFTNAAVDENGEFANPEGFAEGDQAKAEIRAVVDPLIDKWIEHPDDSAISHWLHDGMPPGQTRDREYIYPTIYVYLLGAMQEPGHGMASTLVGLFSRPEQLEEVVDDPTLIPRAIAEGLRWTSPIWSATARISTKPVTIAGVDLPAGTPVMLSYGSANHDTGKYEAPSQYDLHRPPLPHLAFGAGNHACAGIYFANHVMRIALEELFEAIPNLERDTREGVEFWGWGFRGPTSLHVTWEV
T1 sequence (P0DPQ8 1-334 partner): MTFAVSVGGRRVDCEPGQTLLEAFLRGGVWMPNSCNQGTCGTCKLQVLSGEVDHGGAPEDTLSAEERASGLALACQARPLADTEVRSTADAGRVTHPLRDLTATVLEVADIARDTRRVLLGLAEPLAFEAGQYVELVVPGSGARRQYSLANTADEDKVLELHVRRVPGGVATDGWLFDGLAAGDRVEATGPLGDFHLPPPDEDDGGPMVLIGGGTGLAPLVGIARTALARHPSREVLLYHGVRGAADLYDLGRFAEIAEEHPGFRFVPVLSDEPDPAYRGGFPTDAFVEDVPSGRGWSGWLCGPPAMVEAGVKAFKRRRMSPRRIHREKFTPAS
The note with it: screen of ten O-methylated aromatic compounds. How it is done: The demethylation of guaiacol and substrate analogs was continuously monitored under steady-state conditions. […] A total of 100 µg/mL catalase was added to each reaction to capture any H2O2 formed during the uncoupled reaction. […] A total of 20–300 µM guaiacol (preferred substrate) or an alternate substrate from a 2.5 mM stock dissolved in DMSO was added and the reaction was monitored via measurement of UV/vis spectra for several minutes. […] A plot of vi vs [guaiacol] was fit to Eq. (2) to obtain kcat, KM, and kcat/KM. For specific activity determination, the above method was used but with saturating (300 µM) guaiacol. […] Reported values are the average of ≥3 measurements and reported errors are standard deviations.
Reactions with vanillin were performed in the same manner described above.

Experiment [1] relates to T2, LigX.
T2 construct: LigXa with LigXc and LigXd
As to the kind of experiment: Cited steady-state O-demethylation of 5,5'-dehydrodivanillate (10-500 uM) by 0.2 uM LigXa, 6 uM LigXc and 0.4 uM LigXd with 500 uM NADH in FE22 buffer, pH 6.0, 30 °C, air. The format is biochemical. The note with it: cited from earlier work.

Experiment [2] has as its system LigX. Set-up: method as in ref 37 (a number printed in a supplementary file, which may have a reference list of its own: not looked up in the article's list). Particulars: 0.2 μM LigXa, 6 μM LigXc, 0.4 μM LigXd, 500 μM NADH, substrate 10-500 μM, FE22 buffer, pH 6.0, 30 °C; cited from earlier work.
In experiment [3] the test system is PODA. The experiment in a line: Cited steady-state O-demethylation of cryptopine (0-500 uM) by 100 ug PODA with 500 uM alpha-ketoglutarate, 500 uM iron sulfate and 10 mM sodium ascorbate in 100 mM Tris, pH 7.4, 30 °C, air. The experiment is classed as biochemical. The note with it: cited from earlier work.
Experiment [4] deals with PODA. Also noted: method as in ref 36 (a number printed in a supplementary file, which may have a reference list of its own: not looked up in the article's list). Particulars: 100 μg PODA, 500 μM α-KG, 500 μM iron sulfate, 10 mM sodium ascorbate, cryptopine 0-500 μM, pH 7.4, 30 °C; cited from earlier work.

Entries after “also recorded” stand apart in the source; their conditions may differ.

These results are taken from paper PMC6021390, “A promiscuous cytochrome P450 aromatic O-demethylase for lignin bioconversion” (Nature Communications, 2018).

For orientation: Km means the substrate concentration at which the rate is half of its maximum. What is called kcat is the maximal rate divided by the concentration of active sites.

For the compound `COc1cc(C(=O)O)ccc1O` [vanillate], the Km in the experiment with LigM was 630 ± 80 µM. Besides, in the experiment on LigM (vanillate 0.1-5 mM, 100 mM Tris, air), the kcat is 5.8 ± 0.25 s⁻¹. At GcoAB, the “binding or catalytic interaction with GcoA” value is “no detectable binding or catalytic interaction; also recorded: preclude binding and/or demethylation”.
On to `COc1cc(C(=O)O)cc(-c2cc(C(=O)O)cc(OC)c2O)c1O` [5,5'-dehydrodivanillate], for which the Km in the experiment with LigX [1] is 64 µM.
`COc1cc(C(=O)O)cc(-c2cc(C(=O)O)cc(OC)c2O)c1O` [5,5’-dehydrodivanillate]: the kcat with LigX [2] is 6.1 ± 0.2 s⁻¹.
`COc1cc2c(cc1OC)C(=O)Cc1ccc3c(c1CN(C)CC2)OCO3` [cryptopine]: the Michaelis constant (Km) with PODA [3] is 27 µM. In addition, in the experiment on PODA [4], the kcat is 0.034 s⁻¹.
